Laboratory results: US9220746B2, “Compounds and methods for treating bone disorders and controlling weight” (The University of North Carolina at Chapel Hill, priority 2009, dated 2015)
Where no end group is shown, it is not given here.

Columns and labels:
adherent macrophages = assay: Osteoclast differentiation, tartrate resistant acid phosphatase staining; type: cell-based, mouse; conditions: osteoclast differentiation
From the text: The method for osteoclast differentiation is as follows: Balb/c mice in which the IGFBP-2 gene had been deleted (see V. DeMambro et al, Endocrinology, 149(5): 2051-2061 (2007)) were anesthetized and sacrificed using cervical dislocation. The femurs from each mouse were dissected free of soft tissue and the bone marrow aspirated by needle puncture. Cells were removed sterile and resuspended in DMEM with 10% fetal calf serum. The cells were centrifuged at 700×g and the cell pellet resuspended in medium and plated in 24 well plates at a concentration of 5000 cells/cm^2. The plates that are used are low adherence plates that have no additives to facilitate cell adherence. Under these conditions macrophages will adhere while other cells will not. The media is supplemented with mCSF 20 ng/ml. After 3 days the cells are removed from the plate and the adherent macrophages are exposed to fresh media containing 10% FBS and mCSF. This is repeated again after 3 days and then after an additional 3 days cells are trypsinized and replated in fresh plates at 6×10^4 cells/cm. At this time RANK ligand, 50 ng/ml, is added, although in some experiments concentrations as low as 10 ng/ml were utilized. Medium is changed at 3 and 6 days and on day 7 cells are stained for tartrate resistant acid phosphatase, a marker of osteoclast differentiation. IGFBP-2 was added at concentrations between 50 ng/ml and 500 mcg/ml. The peptide was added at 20 or 200 ng/ml.
For tartrate resistant acid phosphatase staining, a 1% solution is prepared and incubated with the cells for 30 min at room temperature. Cultures are then washed and cell number determined by manual counting.

[1] = tested on: cells derived from bone marrow aspirates or calvaria; assay: Osteoblast differentiation, alkaline phosphatase and von kossa stain; type: cell-based, mouse
Procedure: For measurement of osteoblast differentiation, the cells are also derived from the same bone marrow aspirates. However in some experiments they were derived from calvaria obtained from newborn animals. Cells are plated in 6 well plates at […] in alpha MEM with 10% fetal bovine serum. Media was changed on day 1 and 3. At day 3 the cells received differentiation medium, which is alphaMEM containing 10% fetal calf serum, 8 mM glycerol phosphate and 50 ug/ml ascorbic acid. Media subsequently is changed every 2 days until termination of the experiment, generally at 18 days. In some experiments fetal calf serum concentration was lowered to either 5% or 2%. IGFBP-2 200 ng/ml was added to some cultures or the IGFBP-2 peptide at concentrations between 2 ng/ml and 2 mcg/ml. To determine osteoblast differentiation, the cells were fixed with 4% paraformaldehyde and then stained for alkaline phosphatase. The cells were then counterstained with von kossa stain to detect mineralization.

IGFBP-2−/− mice = assay: In vivo rescue of the bone phenotype in IGFBP-2−/− mice (micro CT); design: species or system mouse
Procedure: IGFBP-2−/− mice have reduced bone mineral density, reduced cortical and trabecular thickness and reduced bone turnover, both formation and resorption. To determine if the 13 amino acid peptide was active systemically, a pegylated preparation was prepared in order to extend halflife. This preparation was then injected into the mice. Mice between the ages of 16 and 20 weeks were utilized. These mice are known to have a major bone phenotype. The peptide was injected at a dose of 50 mcg of peptide plus conjugate, that is the total molecular weight of PEG plus the peptide, which is approximately 23,000 molecular weight was injected intraperitoneally five days per week for three weeks. Six mice were injected in each group. The major measure of bone density is the bone volume over total volume as calculated by micro CT analysis. This measures the amount of total bone within a given space. Control animals receive PBS injections.

metacarpals = assay: Metacarpal culture ex vivo (calcein incorporated area, length, width); type: cell-based, mouse; conditions: 10 days, IGFBP2 200 ng/ml, peptides 2 μg/ml, vs PBS; for calcein incorporated area of metacarpals: IGF-1 20 ng/ml
Procedure: FIG. 2. The heparin binding domain of IGFBP2 enhances periosteal expansion of metacarpals ex vivo. Metacarpals were collected from day 1 male mouse, and treated with osteogenic media with IGFBP2 (200 ng/ml) or the heparin-binding domain peptide (HBD-peptide) (2 μg/ml) in the presence or absence of IGF-1 (20 ng/ml) for 10 days. Bones were labeled with calcein (500 ng/ml) and calcein incorporated area was visualized (a) and longitudinal length of calcein incorporated area was quantified (b). Alcian blue and Von Kossa double staining was performed (c) and length and width of metacarpals were quantified (d). Statistical difference was analyzed by ANOVA followed by Bonferroni post-hoc test. Figures shown represent at least 3 independent experiments. Values are expressed as the mean±SEM (n=3-4). ^a; <0.05 vs PBS, ^b; <0.01 vs PBS, ^c; <0.001 vs PBS, ^d; <0.01 vs HBD, ^e; <0.05 vs IGF-I, ^f; <0.05 vs HBD.
Metacarpals were isolated from Igfbp2^−/− mice at 1-day old and incubated in DMEM containing 0.5% BSA, 50 μg/ml ascorbic acid and 1 mM β-glycerol phosphate for 10 days^54. Stimulants were added to culture media from day 1. At day 10, metacarpals were incubated in media containing calcein (500 ng/ml) for 2 hours for staining of calcium deposition, and images were obtained. Then, bones were fixed with 4% PFA, embedded in paraffin, and processed for Alcian blue and von Kossa double staining.

β-catenin = assay: Western blot analysis of β-catenin (cytosolic accumulation, pSer552); type: cell-based, mouse
Procedure: FIG. 6. The heparin-binding domain of IGFBP-2 stimulates cytosolic accumulation and Ser552 phosphorylation of β-catenin by IGF-I. a, MC3T3-E1 cells were serum-starved over-night and treated with IGF-I at the indicated concentration for 6 hours. Expression of β-catenin and α-actin was analyzed by Western blot analysis with membrane and cytosolic fraction. b, Igfbp2^−/− calvarial osteoblasts (COBs) were serum-starved over-night with PBS or pegylated heparin-binding domain peptide (PEG-HBD) and then treated with IGF-I (100 ng/ml) for 6 hours. Expression of β-catenin was analyzed by Western blot analysis with cytosolic fraction and quantified by normalizing to α-actin (n=3). c, MC3T3-E1 cells were serum-starved over-night and treated with IGF-I (100 ng/ml) for 15 min. Expression of pSer552-β-catenin, β-catenin, pSer473-Akt, Akt and α-actin was analyzed by Western blot analysis with whole cell lysates. d, Igfbp2^−/− COBs were serum-starved over-night with PBS or PEG-HBD and then treated with IGF-I (100 ng/ml) for 15 min. Expression of pSer552-β-catenin was analyzed by Western blot analysis with whole cell lysates and quantified by normalizing to β-catenin (n=3). Figures shown represent at least 3 independent experiments. Values are expressed as the mean±SEM. Statistical difference was analyzed by Student's t-test. *; <0.001, **; <0.01, ^†; <0.05. […]

Igfbp2−/− COBs and BMSCs = assay: In vitro osteoblastogenesis of calvarial osteoblasts and bone marrow stromal cells (ALP, Alizarin Red staining); type: cell-based, mouse; conditions: 2 μg/ml, osteogenic media
Procedure: FIG. 1. The heparin-binding domain of IGFBP2 enhances osteoblastogenesis in vitro. a. Von Kossa staining was performed using tibia from 8 weeks old Igfbp2^+/+ and Igfbp2^−/− male mouse. b. Calvarial osteoblasts (COBs) were harvested from day 7 old male Igfbp2^+/+ and Igfbp2^−/− male mouse, and treated with osteogenic media in the presence of 2.5% FCS. At day 7, alkaline phosphatase (ALP) staining was performed. c and d. COBs and Bone marrow stromal cells (BMSCs) from Igfbp2^−/− mouse were treated with osteogenic media with pegylated heparin-binding domain peptide (PEG-HBD) in the presence of 10% FCS. ALP staining (day 7) and Alizarin Red staining (day 14) were performed (c). RNA was isolated at day 14 from BMSCs and expression of ALP, osteocalcin (OC) and Runx2 was analyzed by real-time PCR. Figures shown represent at least 3 independent experiments (n=3). Statistical difference was analyzed by student's t test. *; p<0.05.
FIG. 7. […] Igfbp2^−/− calvarial osteoblasts (COBs) were cultured with osteogenic media with PBS, control peptide (2 μg/ml) or heparin binding domain peptide (HBD-peptide) (2 μg/ml). Osteoblastogenesis was evaluated by Alizarin Red staining.
Neonatal calvarial osteoblasts were collected from 7-10 day old mice as previously described^53. Briefly, calvariae were digested 5 times with collagenase P and Trypsin. Cells released from digests 2 through 5 were collected as primary calvarial osteoblasts, and maintained in DMEM supplemented with 10% FCS and non-essential amino acids. Osteoblastogenesis of primary calvarial osteoblasts was carried out by treating cells with 4 mM β-glycerophosphate and 50 μg/ml ascorbic acid in αMEM. Bone marrow stromal cells (BMSCs) were harvested from femurs and tibias of 8 weeks old mice as described previously^10. Osteoblastogenesis of BMSCs was induced by the treatment with osteogenic media consisting of αMEM containing 10% FCS, 8 mM β-glycerophosphate, and 50 μg/ml ascorbic acid.

PTEN = assay: Western blot analysis of PTEN expression; type: cell-based, mouse; conditions: primary calvarial osteoblasts, overnight treatment
Procedure: FIG. 5. The heparin-binding domain of IGFBP2 suppresses PTEN expression. a and b, Igfbp2^−/− calvarial osteoblasts (COBs) were isolated, and treated with PBS, IGFBP-2 or pegylated heparin-binding domain peptide (PEG-HBD) in MEMα containing 0.1% BSA overnight. Whole cell lysate was collected and expression of PTEN and α-actin was analyzed by Western blot analysis. Expression levels of PTEN were quantified by normalizing to the expression levels of α-actin. c and d. COBs pre-incubated with PBS, IGFBP-2 or PEG-HBD overnight were treated with IGF-I (100 ng/ml) for 15 minutes. Whole cell lysate was collected and expression of pSer473-Akt and Akt was analyzed by Western blot analysis. Expression levels of pSer473-Akt were quantified by normalizing to the expression levels of Akt. Figures shown represent at least 3 independent experiments. Values are expressed as the mean±SEM (n=3-4). Statistical difference was analyzed by Student's t-test. *; <0.001, **; <0.01, ^†; <0.05.
FIG. 9. […] Igfbp2^+/+ calvarial osteoblasts were treated with PBS, control peptide, or heparin-binding domain peptide (HBD-peptide) overnight, and whole cell lysate was collected. PTEN expression was analyzed using western blot analysis (a), and quantitative analysis was performed (b). Values were expressed as the mean±SEM (n=3). Statistical significance was analyzed by ANOVA followed by Bonferroni post-hoc test. ^a; p<0.01 vs. PBS, ^b; p<0.01 vs. control peptide.
To prepare whole cell lysates, cells were solubilized in RIPA buffer^55. For cytosolic fraction, cells were solubilized with hypotonic buffer containing protease and phosphatase inhibitors (10 mM Tris, 0.2 mM MgCl2, pH 7.4) and kept on ice for 10 min. Cell lysates were mixed with sucrose buffer (final concentration; 25 mM Sucrose, 0.1 mM EDTA) and centrifuged at 20,000×g for 1 hour. Supernatant was used as cytosolic fraction. To prepare the membrane fraction, cells were solubilized with PBS containing protease and phosphatase inhibitors. The lysates were frozen at −80° C. for 1 h and thawed at room temperature. After three cycles, they were centrifuged at 13,000×g for 25 min. The pellet was suspended with membrane protein isolation buffer (20 mM Tris-HCl; 150 mM NaCl; 1 mM EDTA; 1 mM EGTA; and 1% Triton X-100, pH 7.5) containing protease and phosphatase inhibitors. Protein concentration was assessed by BCA protein assay kit (Thermo Scientific) and equal amounts of sample were separated by SDS-PAGE and transferred electrophoretically to nitrocellulose membranes. Membranes were blocked in 5% BSA in Tris-buffered saline. […]

[2] = 50 mcg i.p. five days per week for three weeks

## pegylated 13 amino acid peptide: peptide of SEQ ID NO: 1 N-terminally pegylated with methoxyPEG propinaldehyde molecular weight 20 kDa, 1 PEG per peptide ({methoxyPEG 20 kDa}-KHHLGLEEPKKLR)
Adherent macrophages
  biologic activity compared to the nonpegylated peptide: equal biologic activity
[1]
  biologic activity compared to the nonpegylated peptide: equal biologic activity
IGFBP-2−/− mice; [2]
  PTEN in bones (biochemical analysis): downregulated
  cortical thickness: substantially increased
  rescue of bone phenotype relative to normal: ≤ 70%
IGFBP-2−/− mice; 50 mcg peptide plus conjugate i.p. five days per week for three weeks, normal 0.22, gene deletion 0.12
  BV/TV (bone volume over total volume): 0.18

## IGF-I: insulin-like growth factor-I
metacarpals
  calcein incorporated area of metacarpals: stimulated expansion of calcein incorporated area
β-catenin; IGF-I 100 ng/ml 15 min, MC3T3-E1 cells (IGF-I alone) or Igfbp2−/− COBs pre-treated with PEG-HBD
  Ser552 phosphorylation of β-catenin: stimulated β-catenin phosphorylation on Ser552
β-catenin; IGF-I 6 hours, MC3T3-E1 cells (IGF-I alone) or Igfbp2−/− COBs pre-treated with PEG-HBD vs PBS
  cytosolic accumulation of β-catenin: enhanced cytosolic accumulation of β-catenin

## AALSLEEPAALAP (Synthetic control peptide) [control peptide for HBD-peptide, reference compound]
Igfbp2−/− COBs and BMSCs
  mineralization of Igfbp2−/− COBs (Alizarin Red) compared to PBS: did not enhance mineralization
metacarpals
  calcein incorporated area of metacarpals: no effect
  width (and length) of metacarpals: comparable to the metacarpals treated with PBS
PTEN
  PTEN expression: no effect on PTEN expression

## RKGFYKRKQCKPSRGKRK (IGFBP-5 heparin binding domain-containing peptide sequence) [HBD-BP5, reference compound]
Igfbp2−/− COBs and BMSCs
  mineralization of Igfbp2−/− COBs (Alizarin Red) compared to PBS: did not show any enhancement of mineralization
metacarpals
  calcein incorporated area of metacarpals: did not have any effect
  width (and length) of metacarpals: did not have any effect
